Laboratory results as given in paper PMC11506018, “Targeting PARP-1 and DNA Damage Response Defects in Colorectal Cancer Chemotherapy with Established and Novel PARP Inhibitors” (Cancers, 2024).
pIC50: −log10 of the molar value. Read-outs that look alike come from different tables or passages of the source. One block for each compound: values may come before it.

Key:
DLD-1 ATRs/s cells = experiment: cell viability, resazurin reduction assay, DLD-1 ATRs/s; details: for pIC50: read-out: IC50-values DLD-1 ATRs/s
Experimental: (§1) To assess the cytotoxicity of newly developed PARP inhibitors, cells were cultivated in translucent 96-well plates overnight and treated with PARP inhibitors or cytostatic drugs for 72 h. […] Cell viability was assessed by the resazurin reduction assay (RRA) as described previously [41], and fluorescence was measured using a Spark® Multi-well reader (Tecan, Crailsheim, Germany). IC50 values were calculated using GraphPad Prism 9.0 software (GraphPad Software Inc., Boston, MA, USA). To this end, concentrations were transformed into the log scale, plotted against the cell viability and the curve was fitted by nonlinear regression with variable slope, providing the IC50 values.

HCT116 WT cells = experiment: cell viability, resazurin reduction assay, HCT116 WT; details: for pIC50: read-out: IC50-values HCT116 WT
Experimental: as §1

HCT116 BRCA2−/− cells = experiment: cell viability, resazurin reduction assay, HCT116 BRCA2-/-; details: for pIC50: read-out: IC50-values HCT116 BRCA2−/−
Experimental: (§2) To assess the cytotoxicity of newly developed PARP inhibitors, cells were cultivated in translucent 96-well plates overnight and treated with PARP inhibitors or cytostatic drugs for 72 h. For the assessment of synergistic activity, cells were pretreated with the inhibitors for 2 h, before the inhibitor or cytostatic drug was added. Cell viability was assessed by the resazurin reduction assay (RRA) as described previously [41], and fluorescence was measured using a Spark® Multi-well reader (Tecan, Crailsheim, Germany). IC50 values were calculated using GraphPad Prism 9.0 software (GraphPad Software Inc., Boston, MA, USA). To this end, concentrations were transformed into the log scale, plotted against the cell viability and the curve was fitted by nonlinear regression with variable slope, providing the IC50 values.

HCT116 PARP-1+/+ cells = experiment: cell viability, resazurin reduction assay, HCT116 PARP-1+/+; details: for pIC50: read-out: IC50-values HCT116 PARP1+/+
Experimental: as §2

Caco-2 cells = experiment: cell viability, resazurin reduction assay, Caco-2; details: for pIC50: Homo sapiens, read-out: IC50-values Caco-2
Experimental: as §2

DLD-1 WT cells = experiment: cell viability, resazurin reduction assay, DLD-1 WT; details: for pIC50: read-out: IC50-values DLD-1 WT
Experimental: as §1

HCT116 PARP-1−/− cells = experiment: cell viability, resazurin reduction assay, HCT116 PARP-1-/-; details: for pIC50: read-out: IC50-values HCT116 PARP1−/−; for higher sensitivity of HCT116 PARP-1−/− than PARP-1+/+: from IC50 values of Table 1
Experimental: as §2

[1] = test system: human colonic epithelial cells (HCEC); experiment: cell viability, resazurin reduction assay, HCEC; details: 72 h; for pIC50: read-out: IC50-values HCEC
Experimental: as §2

[2] = test system: γH2AX formation in HCT116 BRCA2−/− cells; experiment: γH2AX Western blot in HCT116 BRCA2-/- cells; details: IT 0.25 µM, 24 h, compared to WT
Experimental: (§3) Quantification of chromatin-trapped PARP-1 was performed as described elsewhere [42]. Briefly, HCT116 cells were harvested, and pellets were lysed in buffer containing 150 mM KCl, 2.5 mM MgCl2, 50 mM HEPES pH 7.8, 5 mM EDTA pH 8, 3 mM dithiothreitol (DTT), 10% glycerol, 0.5% Triton X-100, and freshly added protease inhibitor cocktail (Roche) for 15 min on ice. The chromatin-bound protein fraction was isolated by centrifugation at 4 °C for 15 min and 16.000× g. After transferring the soluble fraction, the chromatin-containing pellet was washed twice in lysis buffer and sonicated for 3 min. […] The proteins of interest were detected using a c300 chemiluminescence imager (Azure Biosystems, Dublin, CA, USA). […] The signal intensity (e.g., PARP-1 or γH2AX) of each lane was quantified and subsequently normalized to the respective loading control as indicated in the figure legends, which was analyzed in each experiment. […]

[3] = test system: γH2AX formation in HCT116 WT cells; experiment: γH2AX Western blot in HCT116 WT cells; details: X17613 50 µM or IT 0.25 µM, 24 h
Experimental: Quantification of chromatin-trapped PARP-1 was performed as described elsewhere [42]. Briefly, HCT116 cells were harvested, and pellets were lysed in buffer containing 150 mM KCl, 2.5 mM MgCl2, 50 mM HEPES pH 7.8, 5 mM EDTA pH 8, 3 mM dithiothreitol (DTT), 10% glycerol, 0.5% Triton X-100, and freshly added protease inhibitor cocktail (Roche) for 15 min on ice. The chromatin-bound protein fraction was isolated by centrifugation at 4 °C for 15 min and 16.000× g. After transferring the soluble fraction, the chromatin-containing pellet was washed twice in lysis buffer and sonicated for 3 min. The soluble and chromatin fractions were mixed with self-made 5× Laemmli buffer (200 mM TRIS pH 6.8, 40% glycerol, 8% SDS, 4 % ß-mercaptoethanol, 0.08% Bromphenol Blue) and incubated at 95 °C for 10 min. Samples were then separated by SDS-PAGE followed by Western blot analysis essentially as described previously [43]. For the analysis of γH2AX, cells were directly harvested in 1× Laemmli buffer, incubated at 95 °C for 5 min, and subjected to SDS-PAGE and subsequent Western blot analysis [44]. […] The proteins of interest were detected using a c300 chemiluminescence imager (Azure Biosystems, Dublin, CA, USA). Densitometric image analysis was conducted by applying the software AzureSpot version 2.0.062 (Azure Biosystems, USA). The signal intensity (e.g., PARP-1 or γH2AX) of each lane was quantified and subsequently normalized to the respective loading control as indicated in the figure legends, which was analyzed in each experiment. […]

PARP-1 [4] = biological target: T1, PARP-1 (Homo sapiens, UniProt P09874); experiment: chemiluminescence-based PARP-1 assay kit (recombinant enzyme); details: IC50 PARP-1 screening assay kit, recombinant PARP-1, 1 h RT, n = 2
T1 sequence (P09874 whole entry): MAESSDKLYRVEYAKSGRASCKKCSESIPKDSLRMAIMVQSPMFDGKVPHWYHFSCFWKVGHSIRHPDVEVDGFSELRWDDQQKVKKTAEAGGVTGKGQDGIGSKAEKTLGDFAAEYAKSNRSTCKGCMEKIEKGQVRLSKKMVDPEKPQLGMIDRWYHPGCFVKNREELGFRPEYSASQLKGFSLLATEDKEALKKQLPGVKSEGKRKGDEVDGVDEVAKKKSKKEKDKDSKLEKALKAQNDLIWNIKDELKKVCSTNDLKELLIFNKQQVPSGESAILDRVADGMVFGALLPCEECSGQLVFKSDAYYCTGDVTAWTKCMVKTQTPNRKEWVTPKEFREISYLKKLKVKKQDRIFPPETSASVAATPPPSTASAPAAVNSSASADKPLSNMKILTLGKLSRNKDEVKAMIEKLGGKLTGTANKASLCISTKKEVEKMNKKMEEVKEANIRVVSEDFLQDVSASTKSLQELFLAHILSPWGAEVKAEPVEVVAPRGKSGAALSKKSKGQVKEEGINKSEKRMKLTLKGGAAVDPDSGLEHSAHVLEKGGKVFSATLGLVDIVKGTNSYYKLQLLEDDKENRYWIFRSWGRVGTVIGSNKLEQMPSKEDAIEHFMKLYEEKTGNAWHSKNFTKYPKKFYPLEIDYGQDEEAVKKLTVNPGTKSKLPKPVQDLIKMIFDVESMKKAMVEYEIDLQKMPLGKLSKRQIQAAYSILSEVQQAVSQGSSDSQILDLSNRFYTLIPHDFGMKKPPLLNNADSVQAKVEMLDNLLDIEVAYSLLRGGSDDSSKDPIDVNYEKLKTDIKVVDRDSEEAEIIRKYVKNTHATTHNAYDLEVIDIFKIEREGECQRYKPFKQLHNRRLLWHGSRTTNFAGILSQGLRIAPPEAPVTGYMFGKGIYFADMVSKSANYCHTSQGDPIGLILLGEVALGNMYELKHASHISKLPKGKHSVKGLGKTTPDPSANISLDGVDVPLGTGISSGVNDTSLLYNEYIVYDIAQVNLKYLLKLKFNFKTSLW
Description: Twelve compounds were screened regarding their ability to inhibit PARP-1 enzyme activity in vitro. Therefore, we utilized a chemiluminescence-based PARP-1 assay kit (BPS Bioscience, San Diego, CA, USA) and performed two independent experiments according to the manufacturer’s instructions. Briefly, non-transparent 96-well plates were coated with histones overnight. […] After adding activated DNA and biotinylated NAD^+, the ADP-ribosylation reaction was initiated by the addition of PARP-1 enzyme and incubated at RT for 1 h. Quantification of biotinylated PAR was conducted by using Streptavidin–HRP and subsequent ECL-based detection of chemiluminescence, applying a Spark® multiplate reader (Tecan, Crailsheim, Germany).

[5] = test system: H2O2-induced PAR formation (PARP-1 activity) in HCT116 cells; experiment: PAR immunofluorescence: H2O2-induced PAR formation in HCT116 cells; type: cell-based, human; details: for pIC50: Homo sapiens, HCT-116, 2 h pretreatment, 1 mM H2O2 5 min, unit inferred, read-out: IC50 PAR formation in HCT116 cells (Figure A3A); for PAR signal: concentration of 100 nM; for PAR signal / PAR formation: H2O2-induced; for PAR formation: 10 µM / highest concentration
Experimental: Cells lines were re-authenticated by p53, PARP-1, ATR, and BRCA2 immunoblotting, by their characteristic differential response to genotoxic agents and their typical cell morphology. HCT116, HCT116 BRCA2^−/−, DLD-1 ATR^+/+ and DLD-1 ATR^s/s cells were maintained in DMEM, whereas HCT116 PARP-1^+/+ and HCT116 PARP-1^−/− cells were maintained in RPMI1640 containing 10% FCS and 1% penicillin/streptomycin in a humidified atmosphere at 37 °C and 5% CO2. Caco-2 cells were cultured in MEM with 10% FCS, 1% penicillin/streptomycin, and nonessential amino acids. […] The media and supplements were obtained from PAN-Biotech (Aidenbach, Germany) and Thermo Fisher Scientific (Darmstadt, Germany). Cell culture was frequently tested for contamination with mycoplasma by PCR using the Venor® GeM Classic kit (Minerva Biolabs, Berlin, Germany) and immunofluorescence microscopy with nuclear staining. […] Cells were exposed for 1 h for the quantification of PARP-1 trapping or 2 h for assessing the inhibitory potential by confocal fluorescence microscopy. […] If the PARPi treatment was conducted in combination with cytostatic drugs for 24 h (γH2AX Western blot analysis) or 72 h (cytotoxicity testing), the PARPi was added 2 h prior.
The activity of potential PARP inhibitors was tested in a cell model using immunofluorescence-based detection of PAR essentially as reported previously. HCT116 cells were seeded in Ibidi 12-well chamber slides and cultivated until they reached 70% confluence. Induction of PARylation was achieved by adding 1 mM H2O2 in PBS/1 mM MgCl2 for 5 min at 37 °C. Cells were washed with PBS/1 mM MgCl2 and fixed by adding 4% PFA at RT. After 20 min, cells were washed with PBS/100 mM glycine for 1 min and permeabilized with PBS/0.3% Triton X-100 for 3 min. Blocking of the cells was conducted by adding PBS/0.05% Tween containing 5% powdered milk for 1 h at RT. […] Cells were washed and an Alexa488-coupled secondary antibody was added for 1 h at RT. The slides were mounted with VectaShield containing DAPI and analyzed by confocal microscopy using a Zeiss Axio Observer 7 microscope (Oberkochen, Germany) equipped with a 63× oil objective (Plan-Apochromat 63×/1.40 DIC M27) and a LSM900 confocal laser scanner (Zeiss, Oberkochen, Germany). Images were analyzed using Zeiss Zen software version 3.4 and ImageJ v1.53t (NIH, Bethesda, MD, USA). Briefly, nuclei were identified based on the DAPI signal and marked as regions of interest (ROI). Subsequently, the mean PAR signal in the identified ROI was quantified in each image and exported for further analysis. For the individual experiments, the mean PAR intensity was averaged for each treatment group and the control was set to 100%. Only images with a minimum of 4 cells were included in the analysis and at least 5 images were assessed per treatment group. The experiments were conducted in at least 3 biological replicates. To derive IC50 concentrations, relative PAR levels of the experiments were transferred to GraphPad Prism 9.0 Software (GraphPad Software Inc., Boston, MA, USA) for a nonlinear regression analysis applying a three-parameter model.

PARP-1 [6] = biological target: T1, PARP-1; experiment: chromatin retention assay (PARP-1 trapping) in HCT116 cells; details: HCT116, MMS 1 mM 1 h with inhibitor
Experimental: as §3

PARP-1 [7] = biological target: T1, PARP-1; experiment: chromatin retention assay (PARP-1 trapping) in Caco-2 cells; details: Caco-2, MMS 1 mM 1 h with inhibitor
Experimental: as §3

Structure (SMILES): O=c1[nH]cc(F)c(=O)[nH]1 [5-FU, 5-fluorouracil]
pIC50 (DLD-1 ATRs/s cells; Homo sapiens, DLD-1, 72 h): 6.66
pIC50 (HCT116 WT cells; Homo sapiens, HCT-116, 72 h): 6.30
pIC50 (HCT116 BRCA2−/− cells; Homo sapiens, HCT-116, 72 h): 6.47
pIC50 (HCT116 PARP-1+/+ cells; Homo sapiens, HCT-116, 72 h): 6.62
IC50-values Caco-2 (Caco-2 cells; 72 h, RRA): -
pIC50 (DLD-1 WT cells; Homo sapiens, DLD-1, 72 h): 6.46
pIC50 (HCT116 PARP-1−/− cells; Homo sapiens, HCT-116, 72 h): 6.82
higher sensitivity of HCT116 PARP-1−/− than PARP-1+/+ (HCT116 PARP-1−/− cells): less affected
pIC50 ([1]; Homo sapiens, HCEC): 4.58

Structure (SMILES): CCc1c2c(nc3ccc(OC(=O)N4CCC(N5CCCCC5)CC4)cc13)-c1cc3c(c(=O)n1C2)COC(=O)[C@]3(O)CC [IT, irinotecan]
pIC50 (DLD-1 ATRs/s cells; Homo sapiens, DLD-1, 72 h): 5.52
pIC50 (HCT116 WT cells; Homo sapiens, HCT-116, 72 h): 5.89
γH2AX, mono-treatment [2]: slightly higher γH2AX levels
pIC50 (HCT116 BRCA2−/− cells; Homo sapiens, HCT-116, 72 h): 6.80
pIC50 (HCT116 PARP-1+/+ cells; Homo sapiens, HCT-116, 72 h): 6.03
pIC50 (Caco-2 cells; Caco-2, 72 h): 4.18
pIC50 (DLD-1 WT cells; Homo sapiens, DLD-1, 72 h): 5.38
pIC50 (HCT116 PARP-1−/− cells; Homo sapiens, HCT-116, 72 h): 6.46
higher sensitivity of HCT116 PARP-1−/− than PARP-1+/+ (HCT116 PARP-1−/− cells): 2.5–3 fold
pIC50 ([1]; Homo sapiens, HCEC): 5.53
γH2AX, mono-treatment [3]: significant induction of γH2AX

Structure (SMILES): O=C1[O][Pt]2([NH][C@@H]3CCCC[C@H]3[NH]2)[O]C1=O [OXA, oxaliplatin]
pIC50 (DLD-1 ATRs/s cells; 72 h, RRA): 5.04
pIC50 (HCT116 WT cells; 72 h, RRA): 5.92
pIC50 (HCT116 BRCA2−/− cells; 72 h, RRA): 6.60
pIC50 (HCT116 PARP-1+/+ cells; 72 h, RRA): 6.15
pIC50 (DLD-1 WT cells; 72 h, RRA): 5.06
higher sensitivity of HCT116 PARP-1−/− than PARP-1+/+ (HCT116 PARP-1−/− cells): 2.5–3 fold
pIC50 (HCT116 PARP-1−/− cells; 72 h, RRA): 6.55
pIC50 ([1]; RRA): 4.39

The next lines start with results.

pIC50 (PARP-1 [4]): 5.04
Structure (SMILES): COC(=O)C1CC(=O)c2cccc3[nH]c(C)c1c23 (centres unmarked) [X17616]

pIC50 (PARP-1 [4]): 5.55
pIC50 (DLD-1 ATRs/s cells; Homo sapiens, DLD-1, 72 h): < 4.30
pIC50 (HCT116 WT cells; Homo sapiens, HCT-116, 72 h): < 4.30
pIC50 [5]: 8.27
pIC50 (HCT116 BRCA2−/− cells; Homo sapiens, HCT-116, 72 h): < 4.30
pIC50 (HCT116 PARP-1+/+ cells; Homo sapiens, HCT-116, 72 h): < 4.30
pIC50 (Caco-2 cells; Caco-2, 72 h): < 4.30
pIC50 (DLD-1 WT cells; Homo sapiens, DLD-1, 72 h): < 4.30
pIC50 (HCT116 PARP-1−/− cells; Homo sapiens, HCT-116, 72 h): < 4.30
PARP-1 trapping (PARP-1 [7]): no effects were detected
Structure (SMILES): CNC(=O)C1CC(=O)c2cccc3[nH]c(C)c1c23 (centres unmarked) [X17618, N,2-dimethyl-5-oxo-1,3,4,5-tetrahydrobenzo[cd]indole-3-carboxamide]
cell viability, monotreatment (DLD-1 ATRs/s cells; DLD-1 ATRs/s, 72 h): no effects
cell viability, monotreatment (HCT116 WT cells; HCT116 WT, 72 h, up to 50 µM): no impact
PAR signal [5]: significant decrease in the PAR signal
decrease of viability (HCT116 BRCA2−/− cells; HCT116 BRCA2−/−, highest test concentration of 50 µM, 72 h): about 25%
cell viability, monotreatment (HCT116 PARP-1+/+ cells; HCT116 PARP-1+/+, 72 h, up to 50 µM): Neither X17613 nor X17618 decreased cell viability
cell viability in combination with cytostatics (HCT116 PARP-1+/+ cells; HCT116 PARP-1+/+, IT 0.5 µM, 5-FU 0.25 µM, OXA 0.5 µM, 72 h, PARPi added 2 h prior): did not affect the cytotoxicity of the anticancer drugs
cell viability, monotreatment (Caco-2 cells; Caco-2, 72 h, up to 50 µM): no impact on cell viability at all
sensitization towards the anticancer drugs (Caco-2 cells; Caco-2, IT 10 µM, 5-FU 5 µM, OXA 1 µM): no sensitization towards the anticancer drugs
cell viability, monotreatment (DLD-1 WT cells; DLD-1 WT, 72 h): no effects
cell viability, monotreatment (HCT116 PARP-1−/− cells; HCT116 PARP-1−/−, 72 h, up to 50 µM): Neither X17613 nor X17618 decreased cell viability
cell viability in combination with cytostatics (HCT116 PARP-1−/− cells; HCT116 PARP-1−/−, IT 0.5 µM, 5-FU 0.25 µM, OXA 0.5 µM, 72 h, PARPi added 2 h prior): did not affect the cytotoxicity of the anticancer drugs
pIC50 ([1]; Homo sapiens, HCEC): < 4.30
cell viability, monotreatment ([1]; nonmalignant HCEC, up to 50 µM): no effect on HCEC
chromatin-bound PARP-1 (PARP-1 trapping) (PARP-1 [6]): No enrichment of PARP-1 in the chromatin fraction

pIC50 (PARP-1 [4]): 6.32
Structure (SMILES): Cc1[nH]c2cccc3c2c1C(C(=O)NCc1ccco1)CC3=O (centres unmarked) [X17620, N-(furan-2-ylmethyl)-2-methyl-5-oxo-1,3,4,5-tetrahydrobenzo[cd]indole-3-carboxamide]
PAR formation [5]: no effect on PAR formation

pIC50 (PARP-1 [4]): 5.79
pIC50 [5]: 7.78
Structure (SMILES): Cc1[nH]c2cccc3c2c1C(C(=O)N1CCOCC1)CC3=O (centres unmarked) [X17621, 2-methyl-3-(morpholine-4-carbonyl)-3,4-dihydrobenzo[cd]indol-5(1H)-one]
PAR formation [5]: did not entirely inhibit PAR formation
PAR signal [5]: significant decrease in the PAR signal
